Data as given in ChEMBL document CHEMBL3886367, “Substituted pyridine compound” (2015).

molecular target: T1, Cholesteryl ester transfer protein (Homo sapiens, UniProt P11597); test: CETP Inhibition Assay: A recombinant human CETP protein (manufactured by Roar Biomedical Inc.; 4.5 ng), the acceptor lipoprotein described in (2) above (32.5 ug) and 5,5'-dithio-bis-(2-nitrobenzoic acid) (7 mM, 15 ul) were taken in a 96 well plate and the total amount of the mixture was adjusted to 48.5 ul with the PBS solution. The test compound [DMSO solution (concentration: 0.15, 0.5, 1.5, 5, 15, 50, 150 and 500 uM; 1.5 ul] was added to each well and the mixture was incubated in a thermostatic bath at 37° C. for 60 minutes. The reconstituted HDL (50 ul) described in (1) above was added to each well and the mixture was reacted in a thermostatic bath at 37° C. for 60 minutes. The 96 well plate was moved onto ice and a precipitation reagent [a mixed solution of magnesium chloride (60 mM) and 0.1% dextran sulfate [1/1 (v/v)]; 15 ul] was added to each well, and then the mixture was allowed to stand on ice for 15 minutes.
T1 sequence (P11597 whole entry): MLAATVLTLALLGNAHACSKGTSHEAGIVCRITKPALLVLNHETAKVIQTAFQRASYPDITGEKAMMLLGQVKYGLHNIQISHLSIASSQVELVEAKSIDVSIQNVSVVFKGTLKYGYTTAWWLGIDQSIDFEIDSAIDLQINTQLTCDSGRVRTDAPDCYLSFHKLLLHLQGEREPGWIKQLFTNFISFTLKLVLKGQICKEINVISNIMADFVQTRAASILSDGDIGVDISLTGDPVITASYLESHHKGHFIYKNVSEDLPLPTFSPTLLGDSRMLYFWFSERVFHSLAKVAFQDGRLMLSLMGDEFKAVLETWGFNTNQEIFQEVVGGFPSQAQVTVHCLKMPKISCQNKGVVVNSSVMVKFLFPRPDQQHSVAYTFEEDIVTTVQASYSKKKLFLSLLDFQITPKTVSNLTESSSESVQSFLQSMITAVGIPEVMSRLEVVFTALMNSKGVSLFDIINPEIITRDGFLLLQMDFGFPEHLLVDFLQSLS

IC50 [nM] | SMILES
37 | CC1(C)Cc2nc(C3CCN(c4ncc(OCCO)cn4)CC3)c([C@@H](F)c3ccc(C(F)(F)F)cc3)c(C3CCC(F)(F)CC3)c2[C@@H](O)C1
49 | CC1(C)Cc2nc(C3CCN(c4ncc(N5CCS(=O)(=O)CC5)cn4)CC3)c([C@@H](F)c3ccc(C(F)(F)F)cc3)c(C3CCC(F)(F)CC3)c2[C@@H](O)C1
92 | CCOc1cnc(N2CCC(c3nc4c(c(C5CCC(F)(F)CC5)c3[C@@H](F)c3ccc(C(F)(F)F)cc3)[C@@H](O)CC(C)(C)C4)CC2)nc1 (single isomer, unassigned)
150 | CC1(C)Cc2nc(C3CCN(c4ncc(Br)cn4)CC3)c([C@@H](F)c3ccc(C(F)(F)F)cc3)c(C3CCC(F)(F)CC3)c2[C@@H](O)C1 (single isomer, unassigned)
